Source: patent US7452951B2, “Multifunctional self-decontaminating surface coating” (priority 2004, dated 2008)

Tests used:
[1] = tested on: B. anthracis Sterne strain (Gram+); assay type: cell-based, Bacillus anthracis Sterne strain; settings: unit assumed
S. aureus (Gram+) = assay: Minimum inhibitory concentration (MIC) study of quaternary ammonium biocides; assay type: cell-based, Staphylococcus aureus; settings: unit assumed
Escherichia coli (Gram−) = assay: as above; assay type: cell-based; settings: unit assumed
[2] = tested on: Salmonella typhimurium (Gram−); assay: as above; assay type: cell-based; settings: unit assumed
B. anthracis Sterne = assay type: cell-based, Bacillus anthracis Sterne strain
E. coli = assay: Tube dilution method with neutralizing agent to quench residual biocide activity; assay type: cell-based, Escherichia coli; settings: starting cfu/mL 4.76 × 10^7; NG = no growth
S. aureus = assay: as above; assay type: cell-based, Staphylococcus aureus; settings: starting cfu/mL 5.46 × 10^7; NG = no growth

SMILES | MIC B. anthracis (Gram+) [1] [µg/mL] | MIC S. aureus (Gram+) (S. aureus (Gram+)) [µg/mL] | MIC E. coli (Gram−) (Escherichia coli (Gram−)) [µg/mL] | MIC S. typhimurium (Gram−) [2] [µg/mL] | B. anthracis S.S. count after biocide, tube dilution method (B. anthracis Sterne) | E. Coli count after biocide, tube dilution method (E. coli) | S. aureus count after biocide, tube dilution method (S. aureus)
CCCCCC[N+](C)(C)CCOC.[Br-] [Entry 1, Hexyl-(2-methoxy-ethyl)-dimethyl-ammonium bromide] | 5 | 2.5 | 2.5 | 2.5 |  |  | 
CCCCCC[N+](C)(C)CCOCCOC.[Br-] [Entry 2, Hexyl-[2-(2-methoxy-ethoxy)-ethyl]-dimethyl-ammonium bromide] | > 5 | > 5 | 2.5 | > 5 |  |  | 
CCCCCC[N+](C)(C)CCOCCOCCOC.[Cl-] [Entry 3] | 2.5 | > 5 | 2.5 | > 5 |  |  | 
CCCCCC[N+](C)(C)CCOCCOCCOCCOC.[Cl-] [Entry 4] | 5 | 2.5 | 2.5 | 5 |  |  | 
CCCCCCCC[N+](C)(C)CCOC.[Cl-] [Entry 5] | < 0.312 | 0.18 | 0.625 | 2.5 |  |  | 
CCCCCCCC[N+](C)(C)CCOCCOC.[Cl-] [Entry 6] | 1.25 | 0.31 | 2.5 | 5 |  |  | 
CCCCCCCC[N+](C)(C)CCOCCOCCOC.[Cl-] [Entry 7] | 0.625 | 0.5 | 2.5 | 2.5 |  |  | 
CCCCCCCC[N+](C)(C)CCOCCOCCOCCOC.[Cl-] [Entry 8] | 0.312 | 0.8 | 1.25 | 2.5 |  |  | 
CCCCCCCC[N+](C)(C)CCOCCO.[Cl-] [Entry 9, Octyl-(2-(2-hydroxy-ethoxy)-ethyl)dimethylammonium chloride] | 1.25 | 1.25 | 5 | 5 |  |  | 
CCCCCC[N+](C)(C)CCOCCO.[Cl-] [Entry 10, Hexyl-(2-(2-hydroxy-ethoxy)-ethyl)dimethylammonium chloride] | > 5 | > 5 | 5 | > 5 |  |  | 
c1ccncc1 [Pyridinium] |  |  |  |  | 10^6 cfu/mL | 10^7 cfu/mL | 10^6 cfu/mL
